According to ChEMBL document CHEMBL3046833, “Six new triterpenoid saponins from the leaves of Ilex oblonga and their inhibitory activities against TMV replication” (Chem Pharm Bull (Tokyo), 2007):
In brackets after ≈: the same amount, converted by molar mass.

Columns and labels:
Tobacco mosaic virus [1] = test: Antiviral activity against Tobacco mosaic virus (TMV) assessed as inhibition of viral replication at 0.2 mg/ml after 48 hr by leaf disk method relative to control; format: functional
Tobacco mosaic virus [2] = test: Antiviral activity against Tobacco mosaic virus (TMV) assessed as inhibition of viral replication after 48 hr by leaf disk method; format: functional, organism-based
Tobacco mosaic virus [3] = test: Antiviral activity against Tobacco mosaic virus (TMV) assessed as inhibition of viral replication at 0.025 mg/ml after 48 hr by leaf disk method relative to control; format: functional
Tobacco mosaic virus [4] = test: Antiviral activity against Tobacco mosaic virus (TMV) assessed as inhibition of viral replication at 0.1 mg/ml after 48 hr by leaf disk method relative to control; format: functional
Tobacco mosaic virus [5] = test: Antiviral activity against Tobacco mosaic virus (TMV) assessed as inhibition of viral replication at 0.05 mg/ml after 48 hr by leaf disk method relative to control; format: functional
Tobacco mosaic virus [6] = test: Antiviral activity against Tobacco mosaic virus (TMV) assessed as inhibition of viral replication at 0.4 mg/ml after 48 hr by leaf disk method relative to control; format: functional

Compound | inhibition at 200 µg/mL (Tobacco mosaic virus [1]) [%] | other results
CC1=C(C)[C@H]2C3=CC[C@@H]4[C@@]5(C)CC[C@H](O)[C@@](C)(CO)[C@@H]5CC[C@@]4(C)[C@]3(C)CC[C@@]2(C(=O)O[C@@H]2O[C@H](CO)[C@@H](O)[C@H](O)[C@H]2O)CC1 | 41.1 | –
CC1=C2C3=CC[C@@H]4[C@@]5(C)CC[C@H](O)[C@@](C)(CO)[C@@H]5CC[C@@]4(C)[C@]3(C)CC[C@@]2(C(=O)O[C@@H]2O[C@H](CO)[C@@H](O)[C@H](O)[C@H]2O)CC[C@H]1C | 47.3 | –
CC1=C2C3=CC[C@@H]4[C@@]5(C)CC[C@H](O[C@@H]6OC[C@@H](O)[C@H](O)[C@H]6O)C(C)(C)[C@@H]5CC[C@@]4(C)[C@]3(C)CC[C@@]2(C(=O)O[C@@H]2O[C@H](CO)[C@@H](O)[C@H](O)[C@H]2O)CC[C@H]1C | 33 | –
C=C1C2C3=CC[C@@H]4[C@@]5(C)CC[C@H](O)[C@@](C)(CO)[C@@H]5CC[C@@]4(C)[C@]3(C)CC[C@@]2(C(=O)O[C@@H]2O[C@H](CO)[C@@H](O)[C@H](O)[C@H]2O)CC[C@H]1C (stereo not given in full) | 29.6 | –
CC1=C2C3=CC[C@@H]4[C@@]5(C)CC[C@H](O[C@@H]6OC[C@@H](O)[C@H](O)[C@H]6O)[C@@](C)(CO)[C@@H]5CC[C@@]4(C)[C@]3(C)CC[C@@]2(C(=O)O[C@@H]2O[C@H](CO)[C@@H](O)[C@H](O)[C@H]2O)CC[C@H]1C [OBLONGANOSIDE C] | 38.6 | –
C=C1C2C3=CC[C@@H]4[C@@]5(C)CC[C@H](O[C@@H]6OC[C@@H](O)[C@H](O)[C@H]6O)C(C)(C)[C@@H]5CC[C@@]4(C)[C@]3(C)CC[C@@]2(C(=O)O[C@@H]2O[C@H](CO)[C@@H](O)[C@H](O)[C@H]2O)CC[C@H]1C (stereo not given in full) [OBLONGANOSIDE D] | 37.7 | –
CC1=C(C)[C@H]2C3=CC[C@@H]4[C@@]5(C)CC[C@@H]6O[C@H](CO)OC[C@@]6(C)[C@@H]5CC[C@@]4(C)[C@]3(C)CC[C@@]2(C(=O)O[C@@H]2O[C@H](CO)[C@@H](O)[C@H](O)[C@H]2O)CC1 [Oblonganoside A] | 80.3 | EC50 (Tobacco mosaic virus [2]): 74 µg/mL (≈ 110 µM); inhibition at 25 µg/mL (Tobacco mosaic virus [3]): 10.1%; inhibition at 100 µg/mL (Tobacco mosaic virus [4]): 61.9%; inhibition at 50 µg/mL (Tobacco mosaic virus [5]): 30.1%; Imax (Tobacco mosaic virus [6]): 87.3%
CC1=C(C)[C@H]2C3=CC[C@@H]4[C@@]5(C)CC[C@H](O[C@@H]6OC[C@@H](O)[C@H](O)[C@H]6O)C(C)(C)[C@@H]5CC[C@@]4(C)[C@]3(C)CC[C@@]2(C(=O)O[C@@H]2O[C@H](CO)[C@@H](O)[C@H](O)[C@H]2O)CC1 [Oblonganoside B] | 56.4 | –
C=C1CC[C@]2(C(=O)O[C@@H]3O[C@H](CO)[C@@H](O)[C@H](O)[C@H]3O)CC[C@]3(C)C(=CC[C@@H]4[C@@]5(C)CC[C@H](O)[C@@](C)(CO)[C@@H]5CC[C@]43C)C2[C@]1(C)O (stereo not given in full) [Oblonganoside E] | 21.5 | –
C=C1CC[C@]2(C(=O)O[C@@H]3O[C@H](CO)[C@@H](O)[C@H](O)[C@H]3O)CC[C@]3(C)C(=CC[C@@H]4[C@@]5(C)CC[C@H](O[C@@H]6OC[C@@H](O)[C@H](O)[C@H]6O)C(C)(C)[C@@H]5CC[C@]43C)C2[C@]1(C)O (stereo not given in full) [Oblonganoside F] | 39.7 | –
